Results published in patent publication US10308631B2, “Selective anti-cancer compounds” (NATIONAL UNIVERSITY OF SINGAPORE, priority 2015, dated 2019).

Experiments:
Assay type in all cases: cell-based, human
[1] = test system: non-transformed normal BJ cells; assay: Time-lapsed live cell analysis of mitotic progression (GFP-Histone H2B); conditions: 2.5 μM, monitored every 10 min
Method: (§1) A: is a histogram showing isogenic non-transformed and oncogene-transformed BJ cells stably expressing GFP-tagged Histone H2B as a marker for chromosome segregation, treated with Compound 1 (a131) at 2.5 μM final concentration. Mitotic progression of these cells was monitored every 10 min. More than 100 cells per condition were quantified and classified into 3 groups: no, mild and severe mitotic defects with prolonged mitotic arrest, chromosome mis-segregation and failure in cytokinesis. […] The bars represent 5 μm in length. C: is a histogram showing quantification of defects in spindle formation and chromosome alignments (n>100 cells per condition).
(§2) Isogenic non-transformed and oncogene-transformed BJ cells stably expressing GFP-tagged Histone H2B as a marker for chromosome segregation were treated with Compound 1 at 2.5 μM final concentration. Mitotic progression of these cells was monitored every 10 min and images were acquired using a Super Resolution Microscope (Nikon) equipped with an iXon EM+ 885 EMCCD camera (Andor) mounted on a Nikon Eclipse Ti-E inverted microscope with a CFI Apo objective and a Stage Top Incubation with Digital CO2 mixer (Tokai). The images were processed with the NIS-Elements AR software. […]

[2] = test system: oncogene-transformed BJ cells; assay: as above; conditions: 2.5 μM, monitored every 10 min
Method: as §1, §2

[3] = test system: non-transformed normal BJ cells; assay: Immunofluorescence of chromosome alignment, bipolar spindle and spindle poles; conditions: 2.5 μM, 4 h, then MG132 1.5 h
Method: as §1
(§3) To investigate why massive chromosome mis-segregation occurs in oncogene-transformed BJ cells when treated with Compound 1, but not in non-transformed BJ cells, the effects of Compound 1 were studied on isogenic BJ cell lines (transformed and non-transformed) that stably express GFP-Histone H2B. Cells cultured in accordance with Biology Example 3 were treated with Compound 1 at 2.5 μM final concentration for 4 h followed by MG132 for another 1.5 h to allow chromosome alignment. […]

[4] = test system: oncogene-transformed BJ cells; assay: as above; conditions: 2.5 μM, 4 h, then MG132 1.5 h
Method: as §1, §3

[5] = test system: p53 and p21 in non-transformed BJ cells; assay: Immunoblot analysis of p53 and p21; conditions: 2.5 and 5 μM, 24 h or 48 h
Method: (§4) A: is output from a FACS analysis of isogenic-non-transformed, without (panels a-c) (WT) or with (panels d-f) shRNA-mediated knockdown of p53 (p53KD), and oncogene-transformed BJ cells (panels g-i), each treated with 0, 5 or 2.5 μM Compound 1 (a131) for 24 h. Cells were doubly stained with PI (horizontal axis) and BrdU (vertical axis). The BrdU-positive population in panels a-c are indicated as arrows. B: is a diagrammatic representation of an immunoblot analysis showing isogenic non-transformed (normal) and oncogene-transformed BJ cells (transformed) treated with Compound 1 (a131) at 0, 2.5 or 5 μM for 24 h or 48 h. Cells were harvested and total lysates were analysed by detecting p53 and p21. Antibodies raised against β-actin were used as an internal loading control. C and D are histograms showing the percentage of bromodeoxyuracil (BrdU)-positive non-transformed (normal) BJ cells. C: Cells were treated with Group 1 Compound 1 (a131) at 2.5 and 5 μM, Compound 23 (b36) at 2.5 and 5 μM, and Compound 21 (b35) at 5 μM, and Group 2 Compound 25 (a166) at 2.5 and 5 μM, for 24 h. Cells were doubly stained with propidium iodide (PI) and BrdU, and subjected to FACS analysis. The BrdU-positive population are plotted as bars. […]

[6] = test system: p53 and p21 in oncogene-transformed BJ cells; assay: Immunoblot analysis of p53 and p21; conditions: 2.5 and 5 μM, 24 h or 48 h
Method: as §4

HeLa cells (LC3 puncta) = assay: Immunofluorescence analysis of LC3 puncta; conditions: 2.5 μM, 6 h
Method: HeLa cells, treated with either Compound 1 (a131) at 2.5 μM or DMSO for 6 h, were fixed in ice-cold methanol and subjected to immunofluorescence analysis using antibodies against LC3 and counterstained with diamidino-2-phenylindole (DAPI) to visualize the nucleus. The Merge boxes show both LC3 and DAPI staining. The bars represent 5 μm in length.
To confirm the results of the immunoblot analysis and the lysosome-mediated autophagy activity, HeLa cervical cancer cells as cultured above were treated with Compound 1 (2.5 μM, DMSO) or DMSO as a control for 6 h. The treated cells were fixed in ice-cold methanol and subjected to immunofluorescence analysis using antibodies against LC3 and counterstained with diamidino-2-phenylindole (DAPI) to visualize the nucleus.

In the case of `N#C/C(=C\c1cccc2cnccc12)c1c[nH]c2ccccc12` [Compound 1, (Z)-2-(1H-indol-3-yl)-3-(isoquinolin-5-yl)acrylonitrile], the mitotic defects [1] is reported as “only induced a short period of mitotic arrest with mild mitotic defects”, the mitotic defects [2] is reported as “severe mitotic defects with prolonged mitotic arrest, chromosome mis-segregations and failure in cytokinesis” and the “chromosome alignment and spindle formation” value [3] is reported as “did not show marked defects in chromosome alignment”. For the same compound, the “chromosome alignment and spindle formation” value [4] was “massively misaligned chromosomes with the formation of multipolar spindles”, the “protein levels of p53 and p21” value [5] was “increased protein levels of p53” and the “protein expression levels of p53 and p21” value [6] was “did not alter the protein expression levels of p53 and p21”. For the same compound, the LC3 puncta formation (HeLa cells (LC3 puncta)) was “increased LC3 puncta formation”.
